Data published in the NIST ThermoML archive (doi:10.1016/j.jct.2017.03.033).

Assay: molar heat capacity at constant pressure
Details: Flow calorimetry

CC(C)C [2-methylpropane]
Details	molar heat capacity at constant pressure [J/K/mol]
353.87 K, 10990 kPa, Liquid	150.71
353.87 K, 11500 kPa, Liquid	150.42
353.88 K, 2000 kPa, Liquid	166.17
353.88 K, 3510 kPa, Liquid	160.94
353.88 K, 7510 kPa, Liquid	153.15
353.88 K, 12010 kPa, Liquid	149.9
353.89 K, 5510 kPa, Liquid	157.05
353.89 K, 6510 kPa, Liquid	155.42
353.9 K, 1540 kPa, Liquid	168.38
353.9 K, 4000 kPa, Liquid	160.01
353.9 K, 7990 kPa, Liquid	152.75
363.86 K, 2090 kPa, Liquid	174.19
363.91 K, 2520 kPa, Liquid	171.93
363.92 K, 5030 kPa, Liquid	162.8
363.92 K, 6510 kPa, Liquid	159.43
363.92 K, 8020 kPa, Liquid	156.81
363.93 K, 3000 kPa, Liquid	170.01
363.93 K, 7000 kPa, Liquid	158.5
363.94 K, 5510 kPa, Liquid	161.75
363.94 K, 8500 kPa, Liquid	156.12
363.95 K, 11990 kPa, Liquid	152.05
363.96 K, 4040 kPa, Liquid	165.71
363.96 K, 6000 kPa, Liquid	160.88
363.96 K, 7510 kPa, Liquid	157.92
363.96 K, 9970 kPa, Liquid	153.91
363.96 K, 10510 kPa, Liquid	153.09
363.97 K, 3510 kPa, Liquid	167.22
363.97 K, 8990 kPa, Liquid	155.13
363.97 K, 11000 kPa, Liquid	152.75
363.98 K, 4500 kPa, Liquid	164.66
363.98 K, 9510 kPa, Liquid	154.2
364 K, 11540 kPa, Liquid	152.34
373.85 K, 2530 kPa, Liquid	186.46
373.85 K, 7050 kPa, Liquid	164.54
373.87 K, 7520 kPa, Liquid	163.73
373.89 K, 7980 kPa, Liquid	162.86
373.89 K, 9480 kPa, Liquid	160.48
373.9 K, 5520 kPa, Liquid	169.02
373.9 K, 6000 kPa, Liquid	167.45
373.9 K, 10000 kPa, Liquid	159.78
373.91 K, 9020 kPa, Liquid	161.23
373.92 K, 3010 kPa, Liquid	182.39
373.92 K, 4500 kPa, Liquid	172.97
373.92 K, 8520 kPa, Liquid	162.1
373.93 K, 4020 kPa, Liquid	175.3
373.94 K, 6520 kPa, Liquid	166.64
373.95 K, 5020 kPa, Liquid	171.34
373.95 K, 11010 kPa, Liquid	158.15
373.95 K, 11470 kPa, Liquid	157.45
373.95 K, 11990 kPa, Liquid	157.1
373.97 K, 3530 kPa, Liquid	179.02
373.98 K, 10490 kPa, Liquid	158.44
383.2 K, 2550 kPa, Liquid	209.82
383.21 K, 6010 kPa, Liquid	173.96
383.26 K, 6520 kPa, Liquid	171.81
383.3 K, 3960 kPa, Liquid	188.32
383.32 K, 4990 kPa, Liquid	179.89
383.34 K, 4500 kPa, Liquid	183.72
383.35 K, 3010 kPa, Liquid	201.04
383.42 K, 3490 kPa, Liquid	193.84
383.44 K, 5490 kPa, Liquid	177.21
383.92 K, 6990 kPa, Liquid	170.65
383.92 K, 9990 kPa, Liquid	163.61
383.93 K, 10490 kPa, Liquid	161.7
383.93 K, 12090 kPa, Liquid	159.14
383.94 K, 7980 kPa, Liquid	168.55
383.94 K, 9460 kPa, Liquid	164.25
383.94 K, 11010 kPa, Liquid	160.71
383.94 K, 11570 kPa, Liquid	159.37
383.95 K, 9030 kPa, Liquid	164.95
383.96 K, 7520 kPa, Liquid	169.54
383.97 K, 8470 kPa, Liquid	166.75
393.93 K, 4520 kPa, Liquid	197.56
393.95 K, 3560 kPa, Liquid	222.96
393.96 K, 3090 kPa, Liquid	248.47
393.99 K, 4980 kPa, Liquid	192.79
393.99 K, 7000 kPa, Liquid	177.62
393.99 K, 9000 kPa, Liquid	170.47
394 K, 8010 kPa, Liquid	174.6
394 K, 9500 kPa, Liquid	169.6
394.01 K, 7500 kPa, Liquid	176.28
394.02 K, 6000 kPa, Liquid	183.49
394.02 K, 12020 kPa, Liquid	165.3
394.03 K, 8510 kPa, Liquid	173.38
394.03 K, 11010 kPa, Liquid	166.75
394.04 K, 4060 kPa, Liquid	208.37
394.05 K, 6500 kPa, Liquid	180.59
394.05 K, 9990 kPa, Liquid	168.03
394.05 K, 11510 kPa, Liquid	165.53
394.06 K, 5490 kPa, Liquid	187.33
394.09 K, 10520 kPa, Liquid	167.28
403.41 K, 4080 kPa, Liquid	248.65
403.41 K, 4510 kPa, Liquid	227.2
403.43 K, 5070 kPa, Liquid	209.76
403.44 K, 5520 kPa, Liquid	201.92
403.49 K, 9990 kPa, Liquid	173.15
403.5 K, 8500 kPa, Liquid	177.97
403.51 K, 6500 kPa, Liquid	192.5
403.51 K, 8000 kPa, Liquid	180.88
403.52 K, 6010 kPa, Liquid	195.93
403.53 K, 6990 kPa, Liquid	189.01
403.53 K, 8990 kPa, Liquid	175.94
403.53 K, 10960 kPa, Liquid	172.8
403.53 K, 12000 kPa, Liquid	170.65
403.54 K, 10490 kPa, Liquid	172.91
403.55 K, 9510 kPa, Liquid	174.54
403.55 K, 11490 kPa, Liquid	172.16
403.58 K, 7550 kPa, Liquid	184.77
413.26 K, 4120 kPa, Fluid (supercritical or subcritical phases)	593.02
413.46 K, 4510 kPa, Fluid (supercritical or subcritical phases)	315.55
413.47 K, 5490 kPa, Fluid (supercritical or subcritical phases)	230.16
413.48 K, 6060 kPa, Fluid (supercritical or subcritical phases)	211.86
413.5 K, 4980 kPa, Fluid (supercritical or subcritical phases)	256.44
413.51 K, 6500 kPa, Fluid (supercritical or subcritical phases)	205.29
413.51 K, 7000 kPa, Fluid (supercritical or subcritical phases)	197.5
413.52 K, 11000 kPa, Fluid (supercritical or subcritical phases)	171.93
413.53 K, 7980 kPa, Fluid (supercritical or subcritical phases)	188.9
413.53 K, 8490 kPa, Fluid (supercritical or subcritical phases)	186.05
413.53 K, 10480 kPa, Fluid (supercritical or subcritical phases)	174.77
413.54 K, 7520 kPa, Fluid (supercritical or subcritical phases)	191.28
413.54 K, 10010 kPa, Fluid (supercritical or subcritical phases)	176.92
413.54 K, 11510 kPa, Fluid (supercritical or subcritical phases)	170.01
413.54 K, 11940 kPa, Fluid (supercritical or subcritical phases)	169.43
413.55 K, 8990 kPa, Fluid (supercritical or subcritical phases)	180.93
413.56 K, 9510 kPa, Fluid (supercritical or subcritical phases)	178.9
